The text below walks through data of PubChem BioAssay (NCI).

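Method: 48-hour compound exposure of cells in 96-well plates, five concentrations, linear interpolation of endpoints. TGI denotes the concentration required for complete inhibition of growth.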 A value given as a limit tells only on which side of the number the result lay.

Common to all, as to test: NCI-60 cell line screen, 48 h
Assay [1] relates to RPMI-8226 leukemia.
The test system of assay [2] is KM12 colon.
Assay [3] has as its system T-47D breast.
Assay [4] concerns SK-OV-3 ovarian.
Assay [5] has as its system NCI-H226 lung.
The subject of assay [6] is OVCAR-8 ovarian.
The test system of assay [7] is NCI-H460 lung.
For assay [8], the system named is SK-MEL-2 melanoma.
The subject of assay [9] is SNB-19 CNS.
For assay [10], the system named is UO-31 renal.

Regarding `C=C1C(=O)OC2/C=C(/C)C3(O)OC(C)(CC(OC(=O)C(C)C)C12)CC3OC(C)=O` (stereo unspecified), the TGI in assay [1] is greater than 100 µM; in assay [2], 41 µM; in assay [3], greater than 100 µM; in [4] it was 26.1 µM; in assay [5], greater than 87 µM; in [6] it was greater than 100 µM. Besides, the TGI in assay [7] is 25 µM; in assay [8] it was 49.7 µM; in assay [9], 36.6 µM; in assay [10], 22.2 µM.
As for `CC12CC1C(c1cccc([N+](=O)[O-])c1)(c1cccc([N+](=O)[O-])c1)N=N2` (stereo unspecified), the TGI in assay [1] was 35.9 µM; in assay [2], 47.3 µM; in assay [3], greater than 100 µM; in assay [4] it was greater than 100 µM; in assay [5], greater than 100 µM; in assay [6], 74.4 µM. Further, the TGI in assay [7] is greater than 100 µM; in [8] it was greater than 100 µM; in assay [9], greater than 100 µM; in assay [10], 23.8 µM.
Consider `O=C1c2cccc(NCCNCCO)c2C(=O)c2cccc(NCCNCCO)c21`, for which the TGI in assay [1] is greater than 32.3 µM; in assay [2], 4.48 µM; in [3], 4.26 µM; in assay [4], 8.45 µM; in [5] it was 3.51 µM; in assay [6], 5.97 µM. The TGI worked out at 7.43 µM in assay [7], 2.77 µM in [8], 5.53 µM in assay [9] and 25.9 µM in assay [10].
Consider `O=C1CCCc2cc3c(cc21)CC1(C3)Cc2ccc3c(c2C1)C(=O)CCC3` (stereo unspecified), for which the TGI in assay [1] is 50.8 µM; in assay [2] it was 37.9 µM; in assay [3], greater than 100 µM; in assay [4], greater than 100 µM; in assay [5] it was 90.1 µM; in [6], greater than 100 µM. Besides, the TGI is greater than 100 µM in [7], 88.9 µM in assay [8], greater than 100 µM in [9] and greater than 100 µM in [10].
`Nc1nc(Nc2ccccc2)sc1C(=O)c1c[nH]c2ccccc12`: the TGI was greater than 100 µM in assay [1]; 24.4 µM in assay [2]; 33.3 µM in assay [3]; 32.8 µM in assay [4]; 29.7 µM in assay [5]; 13.6 µM in assay [7]. Besides, the TGI in [8] amounted to 29.8 µM; in assay [9], 20.3 µM; in assay [10], 13.1 µM.
As to `COC(=O)C1=C(O)C(C(=O)OC)[C@@]2(O)[C@@H](C(=O)OC)[C@H](C)[C@@H](C)[C@@H]1[C@@H]2C(=O)OC` (stereo partly specified), the TGI in assay [1], in [2], in [3], in assay [4], in [5] and in assay [7] was greater than 100 µM in each case. The TGI in [8], in [9] and in assay [10] was greater than 100 µM in each case.
In the case of `CCOC(=O)C(C)c1nc2c(Cl)c3ncccc3cc2[nH]c1=O` (stereo unspecified), the TGI in assay [1], in assay [2], in assay [3], in assay [4], in [5] and in [6] was greater than 100 µM in each case. Moreover, the TGI in assay [8], in assay [9] and in assay [10] was greater than 100 µM each time.
Turning to `CCCCC/C(C=O)=C\c1ccccc1`, the TGI in [1], in assay [2], in assay [3], in assay [4], in [5] and in assay [6] was greater than 100 µM each time. In addition, the TGI in assay [7], in [8], in assay [9] and in assay [10] was greater than 100 µM each time.
Turning to `O=C(O)c1c2c(cc3c1CC1(Cc4ccccc4C1=O)C3)CCC2` (stereo unspecified), the TGI in assay [1] was 52.3 µM; in assay [2], greater than 100 µM; in assay [3], greater than 90.7 µM; in assay [4] it was greater than 100 µM; in assay [5] it was greater than 85.8 µM; in assay [6] it was greater than 100 µM. The TGI is greater than 100 µM in assay [7], 55.1 µM in assay [8], greater than 100 µM in [9] and greater than 100 µM in [10].
For `COC(=O)c1cc2c(cc1CC(Cc1ccc3c(c1)CCC3)C(=O)OC)CCC2` (stereo unspecified), the TGI in [1] is 66.8 µM; in assay [2] it was greater than 100 µM; in [3] it was greater than 100 µM; in assay [4] it was greater than 100 µM; in [5], greater than 100 µM; in assay [6] it was greater than 100 µM. The TGI in [7], in [8], in [9] and in [10] was greater than 100 µM each time.
With `Nc1nc(Nc2ccc(Cl)cc2)sc1C(=O)c1cccs1`, the TGI in [1] is greater than 100 µM; in assay [2] it was greater than 100 µM; in assay [3], greater than 100 µM; in assay [4], 50 µM; in assay [5] it was 75.3 µM; in [7], greater than 100 µM. Also, the TGI in assay [8] was greater than 100 µM; in assay [9], 47.6 µM; in [10] it was 95.9 µM.
Take `COc1cc(OCc2ccc3nc(OC)c(OC)nc3c2)cc(OC)c1OC`: the TGI in assay [1], in assay [2], in assay [3], in [4], in [5] and in [6] was greater than 10 µM throughout. Besides, the TGI in assay [7] is greater than 10 µM; in [8] it was greater than 2.29 µM; in assay [9], greater than 10 µM; in assay [10], greater than 10 µM.
As to `COC(=O)C1(Cc2ccc3c(c2)CCC3)Cc2cc3c(cc2C1)CCC3`, the TGI was greater than 100 µM in [1]; greater than 100 µM in assay [2]; 60.7 µM in [3]; greater than 100 µM in [4]; greater than 100 µM in assay [5]; greater than 100 µM in assay [6]. In addition, the TGI in assay [7] is greater than 100 µM; in assay [8] it was 49.3 µM; in assay [9], greater than 100 µM; in assay [10] it was greater than 100 µM.
Consider `COc1c(O)c(O)cc2c1-c1ccc(OC)c(=O)cc1C(NC(C)=O)CC2` (stereo unspecified), for which the TGI in assay [1] is 54.9 µM; in assay [2] it was 33 µM; in assay [3], greater than 100 µM; in assay [4] it was 32.9 µM; in [5], 70.2 µM; in assay [6] it was 62.2 µM. For the same compound, the TGI was 50.9 µM in [7], 50.6 µM in [8], greater than 100 µM in [9] and greater than 100 µM in assay [10].
`CCCCN(CCCC)C(=C(C(Cl)=C(Cl)Cl)[N+](=O)[O-])N(CCCC)CCCC`: the TGI was 58.7 µM in assay [1]; greater than 100 µM in [2]; greater than 100 µM in [3]; greater than 100 µM in assay [4]; greater than 100 µM in assay [5]; greater than 100 µM in assay [7]. The TGI in [8], in assay [9] and in [10] was greater than 100 µM throughout.
Turning to `N#Cc1c(C#N)c(-c2ccccc2)n(-c2ccccc2)c1N`, the TGI in [1] was greater than 100 µM; in assay [2], greater than 100 µM; in assay [3], 56.1 µM; in [4], greater than 100 µM; in assay [5] it was greater than 100 µM; in assay [6], greater than 100 µM. Besides, the TGI in assay [8], in assay [9] and in [10] was greater than 100 µM each time.
With `Cc1cn([C@H]2C[C@](C)(CO)N(C)O2)c(=O)[nH]c1=O`, the TGI in assay [1], in assay [2], in [3], in assay [4], in [5] and in assay [7] was greater than 100 µM each time. Also, the TGI in assay [8], in assay [9] and in assay [10] was greater than 100 µM in each case.
Consider `O=C(O)CC(NC(=O)/C(=C/c1ccccc1O)NC(=O)c1ccccc1)C(=O)O` (stereo unspecified), for which the TGI in assay [1], in [2], in assay [3], in assay [4], in assay [5] and in assay [6] was greater than 100 µM in each case. The TGI in assay [8] and in [10] was greater than 100 µM each time.
For `O=C1CS(=O)C23c4cc5ccccc5n4CCC2CCCN13` (stereo unspecified), the TGI in [1], in assay [2], in [3], in assay [4], in assay [5] and in [6] was greater than 100 µM each time. Also, the TGI in [8] and in [9] was greater than 100 µM each time.
Turning to `CC1(C)[C@@H](Cn2cnc3c(Cl)nc(N)nc32)CC[C@@]1(C)CO`, the TGI was 89.2 µM in assay [1]; greater than 100 µM in assay [2]; greater than 100 µM in [3]; greater than 100 µM in assay [4]; 91.7 µM in assay [5]; 35.1 µM in [8]. Besides, the TGI in [9] was greater than 100 µM; in assay [10] it was 15 µM.
With `O=C(CNCc1ccccc1)Oc1c(Cl)c(Cl)c(Cl)c(Cl)c1Cl`, the TGI is 51.1 µM in assay [2]; 67.9 µM in assay [3]; greater than 100 µM in [4]; 83.1 µM in assay [5]; 48.8 µM in assay [6]; greater than 100 µM in assay [7]. Also, the values for the TGI in assay [8], in assay [9] and in [10] were 92 µM, greater than 100 µM and 52.1 µM, respectively.
